For 34 compounds, Emax and EC50 results are on record in patent US20250074901A1, “NOVEL HETEROARYL COMPOUNDS” (ICAGEN, LLC, priority 2021, published 2025).

In the assay the target is T1, Kv7.2 (Homo sapiens, UniProt O43526).
T1 construct: expressed in transfected cells
Put plainly: Activation of Kv7.2 (in vitro assay, concentration response curve). The class given is cell-based. Conditions: for Emax: Kv7.2 activation max %; for EC50: activation of Kv7.2. A digest of the protocol:
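EC50 is the half-maximal effective concentration, relative to the Emax observed for each compound in this in vitro assay. It was derived from concentration–response curves of the agonistic effect measured over a series of concentrations.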

Compound `COc1cc(CNC(=O)N[C@H]2C[C@H](C(F)(F)F)C2)ccn1` [Example 128, 1-[(2-methoxypyridin-4-yl)methyl]-3-[(1r,3r)-3-(trifluoromethyl)cyclobutyl]urea] gave an Emax of 75% and an EC50 of 5360 nM.
The compound `COc1cc(CNC(=O)NC23CCC(F)(CC2)CC3)ccn1` [Example 129, 1-(4-fluoro-1-bicyclo[2.2.2]octanyl)-3-[(2-methoxypyridin-4-yl)methyl]urea] gave an Emax of 53% and an EC50 of 4970 nM.
In the same order, the values of `O=C(NCc1ccnc(OC(F)F)c1)NC12CCC(CC1)CC2` [Example 131, 1-(1-bicyclo[2.2.2]octanyl)-3-[[2-(difluoromethoxy)pyridin-4-yl]methyl]urea] are 61% and 170 nM.
In the same order, the values of `O=C(NCc1ccnc(OC(F)F)c1)Nc1cccc(CF)c1` [Example 132, 1-[[2-(difluoromethoxy)pyridin-4-yl]methyl]-3-[3-(fluoromethyl)phenyl]urea] are 43% and 1070 nM.
In the same order, the values of `O=C(NCc1ccnc(OC(F)F)c1)N[C@@H]1CC[C@@H]2[C@H]1C2(F)F` [Example 133, 1-[(1R,2R,5R)-6,6-difluoro-2-bicyclo[3.1.0]hexanyl]-3-[[2-(difluoromethoxy)pyridin-4-yl]methyl]urea] are 62% and 600 nM.
Take `O=C(NCc1ccnc(OC(F)F)c1)N[C@H](C1CC1)C(F)(F)F` [Example 134, 1-[(1R)-1-cyclopropyl-2,2,2-trifluoroethyl]-3-[[2-(difluoromethoxy)pyridin-4-yl]methyl]urea]: the Emax is 43% and the EC50 was 550 nM.
On the same counts, the results for `O=C(NCc1ccnc(OC(F)F)c1)N[C@@H](C1CC1)C(F)(F)F` [Example 135, 1-[(1S)-1-cyclopropyl-2,2,2-trifluoroethyl]-3-[[2-(difluoromethoxy)pyridin-4-yl]methyl]urea] are 68% and 1110 nM.
On the same counts, the results for `O=C(NCc1ccnc(OC(F)F)c1)N[C@H]1C[C@H](C(F)F)C1` [Example 136, 1-[[2-(difluoromethoxy)pyridin-4-yl]methyl]-3-[(1r,3r)-3-(difluoromethyl)cyclobutyl]urea] are 50% and 280 nM.
`O=C(NCc1ccnc(OC(F)F)c1)N[C@H]1C[C@@H](C(F)F)C1` [Example 137, 1-[[2-(difluoromethoxy)pyridin-4-yl]methyl]-3-[(1s,3s)-3-(difluoromethyl)cyclobutyl]urea] returned an Emax of 48% and an EC50 of 2410 nM.
On the same counts, the results for `O=C(NCc1ccnc(OC(F)F)c1)N[C@H]1CCCC(F)(F)C1` [Example 140, 1-[(1S)-3,3-difluorocyclohexyl]-3-[[2-(difluoromethoxy)pyridin-4-yl]methyl]urea] are 42% and 100 nM.
On the same counts, the results for `CC1(NC(=O)NCc2ccnc(OC(F)F)c2)CCC(F)(F)C1` (centres unmarked) [Example 142, 1-[[2-(difluoromethoxy)pyridin-4-yl]methyl]-3-(3,3-difluoro-1-methylcyclopentyl)urea] are 40% and 1030 nM.
In the same order, the values of `CC1(NC(=O)NCc2ccnc(OC(F)F)c2)CCC(F)(F)CC1` [Example 143, 1-[[2-(difluoromethoxy)pyridin-4-yl]methyl]-3-(4,4-difluoro-1-methylcyclohexyl)urea] are 40% and 1050 nM.
The compound `O=C(NCc1ccnc(OC(F)F)c1)N[C@H]1CC[C@@H](C(F)(F)F)C1` [Example 144, 1-[[2-(difluoromethoxy)pyridin-4-yl]methyl]-3-[(1S,3R)-3-(trifluoromethyl)cyclopentyl]urea] displayed an Emax of 48% and an EC50 of 220 nM.
In the same order, the values of `O=C(Nc1cccc(Cl)c1)N[C@@H](CO)c1ccnc(OCC(F)(F)F)c1` [Example 145, 1-(3-chlorophenyl)-3-[(1R)-2-hydroxy-1-[2-(2,2,2-trifluoroethoxy)pyridin-4-yl]ethyl]urea] are 58% and 80 nM.
In the case of `O=C(NCc1ccnc(OC(F)F)c1)N[C@@H]1CC[C@H](C(F)(F)F)C1` [Example 146, 1-[[2-(difluoromethoxy)pyridin-4-yl]methyl]-3-[(1R,3S)-3-(trifluoromethyl)cyclopentyl]urea], the Emax was 68% and it took 160 nM to reach a half-maximal effect (EC50).
In the same order, the values of `O=C(NCc1ccnc(OC(F)F)c1)NC1CCCCC1(O)C(F)(F)F` (centres unmarked) [Example 147, 1-[[2-(difluoromethoxy)pyridin-4-yl]methyl]-3-[2-hydroxy-2-(trifluoromethyl)cyclohexyl]urea] are 56% and 540 nM.
In the same order, the values of `O=C(NCc1ccnc(OC(F)F)c1)N[C@@H]1CCCC(F)(F)C1` [Example 149, 1-[(1R)-3,3-difluorocyclohexyl]-3-[[2-(difluoromethoxy)pyridin-4-yl]methyl]urea] are 43% and 240 nM.
In the same order, the values of `O=C(Nc1cccc(Cl)c1F)NC(CO)c1ccnc(OCC(F)(F)F)c1` (centres unmarked) [Example 150, 1-(3-chloro-2-fluorophenyl)-3-[2-hydroxy-1-[2-(2,2,2-trifluoroethoxy)pyridin-4-yl]ethyl]urea] are 73% and 80 nM.
As for `C[C@@H](F)COc1cc(CNC(=O)NC23CCC(F)(CC2)CC3)ccn1` [Example 151, 1-(4-fluoro-1-bicyclo[2.2.2]octanyl)-3-[[2-[(2R)-2-fluoropropoxy]pyridin-4-yl]methyl]urea], the Emax amounted to 42% and the EC50 amounted to 650 nM.
In the same order, the values of `O=C(NCc1ccnc(OC(F)F)c1)NC(C1CCC1)C(F)(F)F` (centres unmarked) [Example 152, 1-(1-cyclobutyl-2,2,2-trifluoroethyl)-3-[[2-(difluoromethoxy)pyridin-4-yl]methyl]urea] are 64% and 140 nM.
On the same counts, the results for `O=C(NCc1ccnc(C(F)(F)F)c1)NC12CC(F)(C1)C2` [Example 153, 1-(3-fluoro-1-bicyclo[1.1.1]pentanyl)-3-[[2-(trifluoromethyl)pyridin-4-yl]methyl]urea] are 41% and 7270 nM.
In the same order, the values of `C[C@H](F)COc1cc(CNC(=O)NC23CCC(F)(CC2)CC3)ccn1` [Example 156, 1-(4-fluoro-1-bicyclo[2.2.2]octanyl)-3-[[2-[(2S)-2-fluoropropoxy]pyridin-4-yl]methyl]urea] are 50% and 560 nM.
In the case of `O=C(NCc1ccnc(OCC(F)(F)F)c1)NC1CC(F)(F)C1` [Example 157, 1-(3,3-difluorocyclobutyl)-3-[[2-(2,2,2-trifluoroethoxy)pyridin-4-yl]methyl]urea], the Emax came to 50% and a half-maximal response (EC50) required 380 nM.
On the same counts, the results for `O=C(NCc1ccnc(CC(F)(F)F)c1)NC12CC(F)(C1)C2` [Example 159, 1-(3-fluoro-1-bicyclo[1.1.1]pentanyl)-3-[[2-(2,2,2-trifluoroethyl)pyridin-4-yl]methyl]urea] are 67% and 5180 nM.
Turning to `CC(F)COc1cc(CNC(=O)NC23CC(F)(C2)C3)ccn1` (centres unmarked) [Example 160, 1-(3-fluoro-1-bicyclo[1.1.1]pentanyl)-3-[[2-(2-fluoropropoxy)pyridin-4-yl]methyl]urea], the Emax was 61% and the EC50 came out at 6310 nM.
In the same order, the values of `O=C(NCc1ccnc(OC(F)F)c1)Nc1cncc(Cl)c1` [Example 161, 1-(5-chloropyridin-3-yl)-3-[[2-(difluoromethoxy)pyridin-4-yl]methyl]urea] are 43% and 1050 nM.
On the same counts, the results for `O=C(NCc1ccnc(OCC(F)(F)F)c1)N[C@H]1C[C@H](F)C1` [Example 162, 1-((1r,3r)-3-fluorocyclobutyl)-3-[[2-(2,2,2-trifluoroethoxy)pyridin-4-yl]methyl]urea] are 50% and 190 nM.
Regarding `C[C@H]1C[C@H](NC(=O)NCc2ccnc(OC(F)F)c2)C1` [Example 163, 1-[[2-(difluoromethoxy)pyridin-4-yl]methyl]-3-((1r,3r)-3-methylcyclobutyl)urea], the Emax was found to be 83% and a half-maximal effect (EC50) was put at 240 nM.
Regarding `O=C(NCc1ccnc(OCF)c1)Nc1cccc(Cl)c1` [Example 164, 1-(3-chlorophenyl)-3-[[2-(fluoromethoxy)pyridin-4-yl]methyl]urea], the Emax stood at 78% and the response was half-maximal at 1720 nM (EC50).
In the same order, the values of `O=C(NCc1ccnc(OC(F)F)c1)NC1COC(C2CC2)C1` (centres unmarked) [Example 166, 1-(5-cyclopropyloxolan-3-yl)-3-[[2-(difluoromethoxy)pyridin-4-yl]methyl]urea] are 66% and 3330 nM.
On the same counts, the results for `O=C(NCc1ccnc(OCC(F)(F)F)c1)NC12CC(F)(C1)C2` [Example 168, 1-(3-fluoro-1-bicyclo[1.1.1]pentanyl)-3-[[2-(2,2,2-trifluoroethoxy)pyridin-4-yl]methyl]urea] are 59% and 210 nM.
On the same counts, the results for `O=C(NCc1ccnc(OC(F)F)c1)N[C@@H]1C[C@@H]2[C@H](C1)C2(F)F` [Example 169, 1-[[2-(difluoromethoxy)pyridin-4-yl]methyl]-3-[(1R,3s,5S)-6,6-difluoro-3-bicyclo[3.1.0]hexanyl]urea] are 69% and 340 nM.
As to `O=C(NCc1ccnc(OC(F)F)c1)N[C@@H]1[C@H]2CCC(F)(F)[C@H]21` [Example 170, 1-[(1R,5S,6R)-2,2-difluoro-6-bicyclo[3.1.0]hexanyl]-3-[[2-(difluoromethoxy)pyridin-4-yl]methyl]urea], the Emax is 59% and the EC50 was 80 nM.
On the same counts, the results for `O=C(NCc1ccnc(OC(F)F)c1)NC1(C2CC(F)(F)C2)CC1` [Example 171, 1-[1-(3,3-difluorocyclobutyl)cyclopropyl]-3-[[2-(difluoromethoxy)pyridin-4-yl]methyl]urea] are 48% and 360 nM.

As usually defined, the Emax is the greatest response seen or fitted, relative to the assay's reference. What is called EC50 is the midpoint of the concentration-response curve.
